Assays:
SK-MEL-3 (melanoma) = experiment: Cell proliferation measurement (Cell Titer Glo), SK-MEL-3; format: cell-based; details: Homo sapiens, SK-MEL3, SK-MEL-3 cells, 72 h treatment, read-out: Anti-proliferation IC50 SK-MEL-3 (melanoma)
Protocol: (§1) The antiproliferative activity of the compounds of the general formula (I) was examined in vitro in human cancer cells. For this purpose, 1000 cells (or 500 HeLa cells) were plated in 384-well plates with appropriate growth medium and incubated at 37° C. overnight. After 24 h, the cells on the test plate were treated with the compounds of the general formula (I) as and incubated at 37° C. for 72 h. The compounds were added to the cells by means of an HP D300 digital dispenser in a 10 (or more)-step dilution series. As control, the cells were treated with vehicle (DMSO at 0.3% final concentration). After 72 h, the cells were treated with 20 μl/well of 50% CTG solution in PBS (Promega Cell Titer Glo (catalogue #G755B and G756B)) and incubated at room temperature for 10 min, and luminescence was measured by means of a VICTOR V (Perkin Elmer), in order to determine cell viability at the end of treatment. The percentage effect on cell growth and the IC50 derived therefrom were determined for each test substance using the values from untreated wells (=percent viability). The IC50 values were calculated using a 4-parameter fit.

[1] = test system: HeLa cells (cervical cancer); experiment: Cell proliferation measurement (Cell Titer Glo), HeLa; format: cell-based; details: Homo sapiens, 72 h treatment, read-out: Anti-proliferation IC50 HeLa (Cervical cancer)
Protocol: as §1

human full length PDE3B = biological target: T1, human full length PDE3B (Homo sapiens, UniProt Q13370); experiment: PDE3B enzyme inhibition (3H-cAMP Scintillation Proximity Assay); format: biochemical; details: PDE3B cell extract from Sf9 cells, 60 min room temperature; read-out: Target IC50 PDE3B IC50
T1 construct: Sf9 cells overexpressing human full length PDE3B; purchased SB Drug Discovery, UK; host or cells: Sf9 cells (cell extract)
T1 sequence (Q13370 whole entry): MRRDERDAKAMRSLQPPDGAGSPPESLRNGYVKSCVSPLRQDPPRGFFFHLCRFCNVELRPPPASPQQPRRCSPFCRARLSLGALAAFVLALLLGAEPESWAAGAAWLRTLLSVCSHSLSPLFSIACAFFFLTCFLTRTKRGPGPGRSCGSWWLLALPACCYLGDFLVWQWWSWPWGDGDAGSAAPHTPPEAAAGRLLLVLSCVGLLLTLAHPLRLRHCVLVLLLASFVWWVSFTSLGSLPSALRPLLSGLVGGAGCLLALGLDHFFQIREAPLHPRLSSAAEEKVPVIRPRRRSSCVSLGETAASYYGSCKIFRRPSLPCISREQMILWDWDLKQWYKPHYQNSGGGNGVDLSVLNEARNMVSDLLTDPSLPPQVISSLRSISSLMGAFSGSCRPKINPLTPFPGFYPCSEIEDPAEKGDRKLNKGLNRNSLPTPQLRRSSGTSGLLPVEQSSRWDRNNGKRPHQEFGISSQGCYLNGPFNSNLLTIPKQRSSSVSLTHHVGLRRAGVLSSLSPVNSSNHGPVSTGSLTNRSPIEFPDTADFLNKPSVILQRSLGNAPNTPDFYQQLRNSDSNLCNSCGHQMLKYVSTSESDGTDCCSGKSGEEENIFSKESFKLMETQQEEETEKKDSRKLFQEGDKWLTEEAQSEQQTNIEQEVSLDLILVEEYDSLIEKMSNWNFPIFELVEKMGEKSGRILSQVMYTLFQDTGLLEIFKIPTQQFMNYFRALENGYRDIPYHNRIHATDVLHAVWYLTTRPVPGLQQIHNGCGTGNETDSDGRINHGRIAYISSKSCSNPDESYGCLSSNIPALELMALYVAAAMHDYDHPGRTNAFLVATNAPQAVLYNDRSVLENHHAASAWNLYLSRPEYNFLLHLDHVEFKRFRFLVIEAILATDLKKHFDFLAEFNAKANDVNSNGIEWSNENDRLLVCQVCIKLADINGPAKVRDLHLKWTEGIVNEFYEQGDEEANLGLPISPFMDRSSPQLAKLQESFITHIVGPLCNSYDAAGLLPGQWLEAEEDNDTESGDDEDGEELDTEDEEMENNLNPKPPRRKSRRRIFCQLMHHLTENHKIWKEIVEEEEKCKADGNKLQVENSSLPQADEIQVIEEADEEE
Protocol: The commercially available 3H-cAMP Scintillation Proximity Assay (SPA, Perkin Elmer) system was used for enzyme inhibition studies. For the determination of the in vitro effect of test substances on the PDE3B reactions 2 μl of the respective test compound solution in DMSO (serial dilutions) were placed in wells of microtiter plates (Isoplate-96/200W; Perkin Elmer). 50 μl of a dilution of PDE3B cell extract from Sf9 cells overexpressing human full length PDE3B (SB Drug Discovery, UK) in buffer A (50 mM Tris/HCl pH 7.5, 8.3 mM MgCl2, 1.7 mM EDTA, 0.2% BSA) was added. The dilution of the PDE3B cell extract was chosen such that the reaction kinetics was linear and less than 70% of the substrate was consumed (typical dilution 1:6000). The reaction was started by addition of 50 μl (0.025 μCi) of 1:2000 in buffer A w/o BSA diluted substrate [8-3H] adenosine 3′,5′-cyclic phosphate (1 μCi/μl; Perkin Elmer). After incubation at room temperature for 60 min, the reaction was stopped by addition of 25 μl of a suspension containing 18 mg/ml yttrium scintillation proximity beads (Perkin Elmer) in water. The microtiter plates were sealed and measured in a Microbeta scintillation counter (PerkinElmer Wallac). IC50 values were determined from sigmoidal curves by plotting percentage PDE3B activity vs log compound concentration.

human full length PDE3A = biological target: T2, human full length PDE3A (Homo sapiens, UniProt Q14432); experiment: PDE3A enzyme inhibition (3H-cAMP Scintillation Proximity Assay); format: biochemical; details: PDE3A cell extract from Sf9 cells, 60 min room temperature; read-out: Target IC50 PDE3A IC50
T2 construct: Sf9 cells overexpressing human full length PDE3A; purchased SB Drug Discovery, UK; host or cells: Sf9 cells (cell extract)
T2 sequence (Q14432 whole entry): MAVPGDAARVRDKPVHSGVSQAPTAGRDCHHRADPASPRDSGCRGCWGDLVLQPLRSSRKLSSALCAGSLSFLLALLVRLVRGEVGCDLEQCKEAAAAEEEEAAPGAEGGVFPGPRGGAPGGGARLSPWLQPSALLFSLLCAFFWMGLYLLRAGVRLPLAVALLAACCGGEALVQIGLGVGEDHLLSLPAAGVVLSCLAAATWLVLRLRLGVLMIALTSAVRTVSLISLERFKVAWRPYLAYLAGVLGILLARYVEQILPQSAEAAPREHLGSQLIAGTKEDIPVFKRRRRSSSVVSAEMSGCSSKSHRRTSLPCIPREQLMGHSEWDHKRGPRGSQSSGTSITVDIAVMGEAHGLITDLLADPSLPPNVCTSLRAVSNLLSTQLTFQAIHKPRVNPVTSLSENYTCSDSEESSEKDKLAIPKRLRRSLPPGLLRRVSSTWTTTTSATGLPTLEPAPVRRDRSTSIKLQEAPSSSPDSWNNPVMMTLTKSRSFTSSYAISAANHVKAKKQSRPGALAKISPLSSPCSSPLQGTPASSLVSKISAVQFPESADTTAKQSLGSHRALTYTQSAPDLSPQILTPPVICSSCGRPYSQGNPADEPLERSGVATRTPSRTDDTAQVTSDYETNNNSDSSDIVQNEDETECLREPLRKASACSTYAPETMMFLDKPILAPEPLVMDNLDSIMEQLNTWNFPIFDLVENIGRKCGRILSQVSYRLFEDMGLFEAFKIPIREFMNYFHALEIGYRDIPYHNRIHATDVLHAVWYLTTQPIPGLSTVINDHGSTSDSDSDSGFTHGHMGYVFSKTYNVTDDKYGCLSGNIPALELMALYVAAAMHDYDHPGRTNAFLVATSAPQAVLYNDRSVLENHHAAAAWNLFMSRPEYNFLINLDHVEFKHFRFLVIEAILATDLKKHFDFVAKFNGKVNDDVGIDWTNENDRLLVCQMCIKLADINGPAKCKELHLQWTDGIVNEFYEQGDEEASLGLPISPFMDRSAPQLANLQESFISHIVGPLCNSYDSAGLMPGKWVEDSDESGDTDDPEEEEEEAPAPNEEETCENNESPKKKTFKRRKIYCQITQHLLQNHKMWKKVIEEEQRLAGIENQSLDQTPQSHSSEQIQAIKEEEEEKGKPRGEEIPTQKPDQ
Protocol: The commercially available 3H-cAMP Scintillation Proximity Assay (SPA, Perkin Elmer) system was used for enzyme inhibition studies. For the determination of the in vitro effect of test substances on the PDE3A reactions 2 μl of the respective test compound solution in DMSO (serial dilutions) were is placed in wells of microtiter plates (Isoplate-96/200W; Perkin Elmer). 50 μl of a dilution of PDE3A cell extract from Sf9 cells overexpressing human full length PDE3A (SB Drug Discovery, UK) in buffer A (50 mM Tris/HCl pH 7.5, 8.3 mM MgCl2, 1.7 mM EDTA, 0.2% BSA) was added. The dilution of the PDE3A cell extract was chosen such that the reaction kinetics was linear and less than 70% of the substrate was consumed (typical dilution 1:5000). The reaction was started by addition of 50 μl (0.025 μCi) of 1:2000 in buffer A w/o BSA diluted substrate [8-3H] adenosine 3′,5′-cyclic phosphate (1 μCi/μl; Perkin Elmer). After incubation at room temperature for 60 min, the reaction was stopped by addition of 25 μl of a suspension containing 18 mg/ml yttrium scintillation proximity beads (Perkin Elmer) in water. The microtiter plates were sealed and measured in a Microbeta scintillation counter (PerkinElmer Wallac). IC50 values were determined from sigmoidal curves by plotting percentage PDE3A activity vs log compound concentration.

| SMILES | IC50 (SK-MEL-3 (melanoma)) | IC50 [1] | IC50 (human full length PDE3B) | IC50 (human full length PDE3A) |
| --- | --- | --- | --- | --- |
| Cc1cc(C2=NNC(=O)CC2)ccc1-c1cccc(F)c1F [Example 104, 6-(2′,3′-difluoro-2-methyl[1,1′-biphenyl]-4-yl)-4,5-dihydropyridazin-3(2H)-one] | 0.0708 µM | 0.0134 µM | 0.12 µM | 0.12 µM |
| O=C1CCC(c2ccc(N3CCOCC3)c(C(F)(F)F)c2)=NN1 [Example 126, 6-[4-(Morpholin-4-yl)-3-(trifluoromethyl)phenyl]-4,5-dihydropyridazin-3(2H)-one] | 0.00706 µM | 0.00529 µM | 0.095 µM | 0.059 µM |
| O=C1CCC(c2ccc(-c3ccc(F)c(Cl)c3)c(F)c2)=NN1 [Example 83, 6-(3′-chloro-2,4′-difluoro[1,1′-biphenyl]-4-yl)-4,5-dihydropyridazin-3(2H)-one] | 0.0618 µM | 0.0397 µM | 0.28 µM | 0.56 µM |
| COc1ccc(-c2ccc(C3=NNC(=O)CC3)cc2F)cn1 [Example 82, 6-[3-fluoro-4-(6-methoxypyridin-3-yl)phenyl]-4,5-dihydropyridazin-3(2H)-one] | 0.0236 µM | 0.014 µM | 0.085 µM | 0.083 µM |
| O=C1CCC(c2ccc(N3CC4CC(C3)C4(F)F)c(C(F)(F)F)c2)=NN1 [Example 21, 6-[4-(6,6-Difluoro-3-azabicyclo[3.1.1]hept-3-yl)-3-(trifluoromethyl)phenyl]-4,5-dihydropyridazin-3(2H)-one] | 0.00582 µM | 0.00287 µM | 0.05 µM | 0.082 µM |
| O=C1CCC(c2ccc(-c3cccc(F)c3F)c(F)c2)=NN1 [Example 53, 6-(2,2′,3′-trifluoro[1,1′-biphenyl]-4-yl)-4,5-dihydropyridazin-3(2H)-one] | 0.00678 µM | 0.00382 µM | 0.034 µM | 0.068 µM |
| CCc1ccccc1-c1ccc(C2=NNC(=O)CC2)cc1F [Example 81, 6-(2′-ethyl-2-fluoro[1,1′-biphenyl]-4-yl)-4,5-dihydropyridazin-3(2H)-one] | 0.0263 µM | 0.0139 µM | 0.23 µM | 0.37 µM |
| COc1cccc(-c2ccc(C3=NNC(=O)CC3)cc2F)c1OC [Example 78, 6-(2-fluoro-2′,3′-dimethoxy[1,1′-biphenyl]-4-yl)-4,5-dihydropyridazin-3(2H)-one] | 0.069 µM | 0.0533 µM | 0.6 µM | 0.32 µM |
| O=C1CCC(c2ccc(-c3ccncc3Cl)c(F)c2)=NN1 [Example 69, 6-[4-(3-chloropyridin-4-yl)-3-fluorophenyl]-4,5-dihydropyridazin-3(2H)-one] | 0.0386 µM | 0.0183 µM | 0.095 µM | 0.14 µM |
| Cc1cccc(-c2ccc(C3=NNC(=O)CC3)cc2F)c1C [Example 85, 6-(2-fluoro-2′,3′-dimethyl[1,1′-biphenyl]-4-yl)-4,5-dihydropyridazin-3(2H)-one] | 0.0404 µM | 0.0189 µM | 0.15 µM | 0.24 µM |
| Nc1ccc(-c2ccc(C3=NNC(=O)CC3)cc2F)cc1 [Example 76, 6-(4′-amino-2-fluoro[1,1′-biphenyl]-4-yl)-4,5-dihydropyridazin-3(2H)-one] | 0.00873 µM | 0.00552 µM | 0.089 µM | 0.09 µM |
| O=C1CCC(c2ccc(C3=CCCCC3)c(F)c2)=NN1 [Example 79, 6-(2-fluoro-2′,3′,4′,5′-tetrahydro[1,1′-biphenyl]-4-yl)-4,5-dihydropyridazin-3(2H)-one] | 0.00615 µM | 0.00447 µM | 0.17 µM | 0.17 µM |
| O=C1CCC(c2ccc(-c3cccc(F)c3)c(F)c2)=NN1 [Example 63, 6-(2,3′-difluoro[1,1′-biphenyl]-4-yl)-4,5-dihydropyridazin-3(2H)-one] | 0.0064 µM | 0.00475 µM | 0.088 µM | 0.25 µM |
| Cc1ccccc1-c1ccc(C2=NNC(=O)CC2)cc1F [Example 77, 6-(2-fluoro-2′-methyl[1,1′-biphenyl]-4-yl)-4,5-dihydropyridazin-3(2H)-one] | 0.00453 µM | 0.00204 µM | 0.08 µM | 0.1 µM |
| O=C1CCC(c2ccc(C3=CCCC3)c(F)c2)=NN1 [Example 80, 6-[4-(cyclopent-1-en-1-yl)-3-fluorophenyl]-4,5-dihydropyridazin-3(2H)-one] | 0.00413 µM | 0.00267 µM | 0.31 µM | 0.22 µM |
| Cc1ccc(-c2ccc(C3=NNC(=O)CC3)cc2F)c(F)c1 [Example 37, 6-(2,2′-difluoro-4′-methyl[1,1′-biphenyl]-4-yl)-4,5-dihydropyridazin-3(2H)-one] | 0.00731 µM | 0.004 µM | 0.1 µM | 0.13 µM |
| O=C1CCC(c2ccc(-c3ccccc3C(F)(F)F)c(F)c2)=NN1 [Example 61, 6-[2-fluoro-2′-(trifluoromethyl)[1,1′-biphenyl]-4-yl]-4,5-dihydropyridazin-3(2H)-one] | 0.0376 µM | 0.0195 µM |  |  |

Next, values leading:

| IC50 (SK-MEL-3 (melanoma)) | IC50 [1] | IC50 (human full length PDE3B) | IC50 (human full length PDE3A) | SMILES |
| --- | --- | --- | --- | --- |
| 0.00366 µM | 0.00211 µM | 0.028 µM | 0.056 µM | Cc1ccncc1-c1ccc(C2=NNC(=O)CC2)cc1F [Example 67, 6-[3-fluoro-4-(4-methylpyridin-3-yl)phenyl]-4,5-dihydropyridazin-3(2H)-one] |
| > 0.1 µM | 0.0463 µM | 0.053 µM | 0.036 µM | Cc1cc(C2=NNC(=O)CC2)ccc1-c1cccc(C(N)=O)c1 [Example 114, 2′-methyl-4′-(6-oxo-1,4,5,6-tetrahydropyridazin-3-yl)[1,1′-biphenyl]-3-carboxamide] |
| 0.0373 µM | 0.00787 µM | 0.08 µM | 0.047 µM | Cc1cc(C2=NNC(=O)CC2)ccc1-c1ccc(N)cc1 [Example 115, 6-(4′-amino-2-methyl[1,1′-biphenyl]-4-yl)-4,5-dihydropyridazin-3(2H)-one] |
| > 0.1 µM | 0.0658 µM | 0.29 µM | 0.29 µM | Cc1cc(-c2ccc(C3=NNC(=O)CC3)cc2C)ccc1F [Example 119, 6-(4′-fluoro-2,3′-dimethyl[1,1′-biphenyl]-4-yl)-4,5-dihydropyridazin-3(2H)-one] |
| 0.0657 µM | 0.0213 µM | 0.039 µM | 0.12 µM | Cc1cc(C2=NNC(=O)CC2)ccc1-c1ccncc1 [Example 5, 6-[3-Methyl-4-(pyridin-4-yl)phenyl]-4,5-dihydropyridazin-3(2H)-one] |
| 0.0145 µM | 0.00572 µM | 0.067 µM | 0.065 µM | Cc1cc(C2=NNC(=O)CC2)ccc1-c1cccnc1 [Example 2, 6-[3-Methyl-4-(pyridin-3-yl)phenyl]-4,5-dihydropyridazin-3(2H)-one] |
| 0.0392 µM | 0.00857 µM | 0.26 µM | 0.24 µM | Cc1cc(C2=NNC(=O)CC2)ccc1-c1c(F)cccc1F [Example 110, 6-(2′,6′-difluoro-2-methyl[1,1′-biphenyl]-4-yl)-4,5-dihydropyridazin-3(2H)-one] |

Reference: patent US11897867B2, “6-phenyl-4,5-dihydropyridazin-3(2H)-one derivatives as PDE3A and PDE3B inhibitors for treating cancer” (Bayer Aktiengesellschaft, priority 2017, dated 2024)
